{"source": "patent US10682399B2", "about": "“Target peptides for colorectal cancer therapy and diagnostics” (University of Virginia Patent Foundation, priority 2012, dated 2020)", "key": {"[1]": {"tested_on": "CRC cell line SW620", "assay": "Killing of CRC cell line by phosphopeptide-specific T cell lines", "type": "cell-based, human", "settings": "T cell lines established against the phosphopeptide", "description": "T cells lines were established against some of these key phosphopeptide targets."}, "[2]": {"tested_on": "CD8+ T cells", "assay": "Immunization of HLA-A2 transgenic mice with phosphopeptide", "type": "in vivo, mouse", "settings": "immunization with the phosphopeptide", "procedure": "In some embodiments, the immunogenicity of a target peptide is measured using transgenic mice expressing human MHC class I genes. For example, “ADD Tg mice” express an interspecies hybrid class I MHC gene, AAD, which contains the α-1 and α-2 domains of the human HLA-A2.1 gene and the α-3 transmembrane and cytoplasmic domains of the mouse H-2Dd gene, under the transcriptional control of the human HLA-A2.1 promoter. Immunodetection of the HLA-A2.1 recombinant transgene established that expression was at equivalent levels to endogenous mouse class I molecules. The mouse α-3 domain expression enhances the immune response in this system. Compared to unmodified HLA-A2.1, the chimeric HLA-A2.1/H2-Dd MHC Class I molecule mediates efficient positive selection of mouse T cells to provide a more complete T cell repertoire capable of recognizing peptides presented by HLA-A2.1 Class I molecules.\nThe peptide epitopes presented and recognized by mouse T cells in the context of the HLA-A2.1/H2-Dd class I molecule are the same as those presented in HLA-A2.1^+ humans. […]\nIn some embodiments, the immunogenicity of a modified phosphopeptide is determined by the degree of Interferon gamma (IFNγ) and/or tumor necrosis factor-alpha (TNF-α) production of T cells from ADD Tg mice immunized with the target peptide, e.g., by immunization with target peptide pulsed bone marrow derived dendritic cells. […]"}, "[3]": {"tested_on": "human melanoma and breast tumors", "assay": "Recognition and killing of tumors in vitro by phosphopeptide-specific CD8+ T cells", "type": "cell-based", "description": "(§1) IRS proteins are adapter proteins that link signaling from upstream activators to multiple downstream effectors to modulate normal growth, metabolism, survival and differentiation."}, "[4]": {"tested_on": "xenograft tumor", "assay": "Xenograft tumor model system", "type": "in vivo", "description": "as §1"}, "[5]": {"tested_on": "Tumor infiltrating lymphocytes (TILs)", "assay": "TIL responses to phosphopeptides, multiplexed intracellular cytokine staining for IL-2, IFNγ, TNFα", "type": "cell-based, human", "procedure": "Tumor infiltrating lymphocytes (“TILs”) from the same tumors, were extracted and expanded, and their responses to the phosphopeptides assessed using multiplexed intracellular cytokine staining for IL-2, IFNγ, and TNFα as depicted in FIG. 1A.\nTumor infiltrating lymphocytes (TILs) were also taken from the patient tumors at resection and expanded, using high-dose IL-2 (6000 IU/ml). TIL responses to the phosphopeptides were then tested using ICS. TILs were stimulated with phosphopeptide and cultured for 7 days before being re-stimulated in an intracellular cytokine staining assay assessing production of tumor necrosis factor alpha (TNFα), interferon gamma (IFNγ) and interleukin-2 (IL-2). The results are depicted in FIG. 6."}, "[6]": {"tested_on": "memory T cells", "assay": "Phosphopeptide-specific memory T cell response in a patient", "type": "cell-based, human", "description": "The phrase “capable of inducing a target peptide-specific memory T cell response in a patient” as used herein relates to eliciting a response from memory T cells (also referred to as “antigen-experienced T cell”), which are a subset of infection- and cancer-fighting T cells that have previously encountered and responded to their cognate antigen. Such T cells can recognize foreign invaders, such as bacteria or viruses, as well as cancer cells. Memory T cells have become “experienced” by having encountered antigen during a prior infection, having encountered cancer, or via previous vaccination. At a second encounter with the cognate antigen (e.g., by way of an initial inoculation with a target peptide of the presently disclosed subject matter), memory T cells can reproduce to mount a faster and stronger immune response than the first time the immune system responded to the invader (e.g., through the body's own consciously unperceived recognition of a target peptide being associated with diseased tissue). This behavior can be assayed in T lymphocyte proliferation assays, which can reveal exposure to specific antigens.\nTensin 3 (TNS3) plays a role in actin remodeling. It is involved in the dissociation of the integrin-tensin-actin complex. EGF activates TNS4 and down-regulates TNS3 which results in capping the tail of ITGB1. […]"}, "[7]": {"tested_on": "Healthy donor PBMC", "assay": "Cultured IFNγ ELISpot on day 7, healthy donor PBMC", "type": "cell-based, human", "settings": "day 7, HLA-matched healthy donors", "procedure": "Healthy donor PBMC responses to the CRC tumor-specific phosphopeptides were assessed using a cultured IFNγ ELISpot on day 7.\nGenerally, quantification of T cell IFNγ production in response to peptides was performed by ELISpot as per manufacturer's instructions. In brief, ELISpotPRO wells, pre-coated with IFNγ monoclonal antibody mAb 1-D1K (MabTech, product code: 3420-2APW-2), were washed four times with sterile PBS and blocked for 30 minutes with 200 μl 10% RPMI 1640 after which the blocking medium was removed.\nFor ELISpot analysis, PBMCs and CD8+ T cells were isolated fresh from healthy donors and patients. 1×10^6 PBMCs were isolated from both disease patients and healthy donors and re-suspended in AIM-V media (10% human AB serum) in a 96 well plate. Peptide or phosphopeptides were added individually at 10 μg/ml and placed at 37° C. in CO2 incubator for 7 days. Cells were then harvested, washed four times, and re-challenged with either phosphopeptides, peptides, anti CD3 (OKT3, 100 ng/ml, Mabtech) as per manufacturer's instructions. Individual cytokine-producing cells were identified as dark spots after a 15 minute reaction with 5-bromo-4-chloro-3-indolyl phosphate and NBT by means of an alkaline phosphatase conjugate substrate (Mabtech)."}}, "note": "Non-standard residues stand in square brackets, D forms with d. No end group written: not given here. pS = N[C@@H](COP(=O)(O)O)C(=O)O"}
{"substance": "RVAsPTSGV (RVA[pS]PTSGV; listed as Homo sapiens) [IRS2 (A2), HLA-A*0201 phosphopeptide from insulin receptor substrate 2]", "values": [{"measurement": "Killing of SW620 by phosphopeptide-specific T cell line", "setting": "[1]", "result": "specifically kill"}, {"measurement": "Generation of phosphopeptide-specific CD8+ T cells", "setting": "[2]", "result": "can be generated"}, {"measurement": "Recognition and killing of human melanoma and breast tumors by the T cells", "setting": "[3]", "result": "capable of recognizing and killing"}, {"measurement": "Tumor growth control by the T cells", "setting": "[4]", "result": "controlled tumor growth"}]}
{"substance": "RTMsEAALVRK (RTM[pS]EAALVRK; listed as Homo sapiens) [RASSF6]", "values": [{"measurement": "TIL responses to phosphopeptide (IL-2, IFNγ, TNFα)", "setting": "[5]; TILs extracted from tumors and expanded", "result": "responses were seen"}]}
{"substance": "RPRARsVDAL (RPRAR[pS]VDAL; listed as Homo sapiens) [LISCH7]", "values": [{"measurement": "TIL response", "setting": "[5]; TILs from the tumor from which the phosphopeptides were identified, equivalent to the EBV peptide response", "result": "~2 % of TILs"}]}
{"substance": "VMIGsPKKV (VMIG[pS]PKKV; listed as Homo sapiens) [Tensin 3 phosphopeptide]", "values": [{"measurement": "Phosphopeptide-specific memory T cell response", "setting": "[6]", "result": "capable of inducing a strong phosphopeptide-specific memory T cell response"}]}
{"substance": "RTHsLLLLL (RTH[pS]LLLLL; listed as Homo sapiens) [RNASE4]", "values": [{"measurement": "Healthy donor PBMC responses, IFNγ ELISpot", "setting": "[7]", "result": "many responses were seen"}]}
{"substance": "LPIFSRLsI (LPIFSRL[pS]I; listed as Homo sapiens) [ZFP36L2]", "values": [{"measurement": "Healthy donor PBMC responses, IFNγ ELISpot", "setting": "[7]", "result": "many responses were seen"}, {"measurement": "Killing of SW620 by phosphopeptide-specific T cell line", "setting": "[1]", "result": "specifically kill"}]}
